Assay results: the OPERA property sets (Mansouri et al. 2018)

**Q.** For `CC(=O)O[C@]1(C(C)=O)CC[C@H]2[C@@H]3C=C(C)C4=CC(=O)CC[C@]4(C)[C@H]3CC[C@@]21C`, which melting point is on record?
**A.** The melting point was 214 °C.

**Q.** Which results are given for `C1CCC(CCCC2CCCCC2)CC1`?
**A.** boiling point: 292 °C; melting point: -17 °C

**Q.** Which melting point does the source give for `O=S(=O)(O)c1ccc2cc(O)ccc2c1` here?
**A.** The melting point was 125 °C.

**Q.** For `O=C1OC(=O)c2c(F)c(F)c(F)c(F)c21`, which melting point is on record?
**A.** Its melting point is 95 °C.

**Q.** With `CC(=O)NC(Cc1ccccc1)C(=O)O` (stereo in doubt) as the compound, how does the melting point read?
**A.** The melting point was 172 °C.

**Q.** Which melting point does the source give for `CCCOC(=O)Cn1cc(I)c(=O)c(I)c1` here?
**A.** The melting point was 186 °C.

**Q.** With `CCCCCCCCCCCCCCCCC#N` as the compound, how does the boiling point read?
**A.** Its boiling point is 349 °C.

**Q.** And the melting point?
**A.** The melting point was 34 °C.

**Q.** For `Cc1cccnc1N`, which boiling point is on record?
**A.** The boiling point was 222 °C.

**Q.** What about the melting point of the same compound?
**A.** Its melting point is 33.5 °C.

**Q.** Which boiling point does the source give for `COC(=O)c1ccc(C)cc1` here?
**A.** The boiling point was 220 °C.

**Q.** And the melting point?
**A.** The melting point was 33.2 °C.

**Q.** With `Nc1ccc(F)c(Cl)c1` as the compound, how does the boiling point read?
**A.** Its boiling point is 228 °C.

**Q.** And the melting point?
**A.** Its melting point is 45.5 °C.

**Q.** For `COC(=O)c1ccc(C(=O)OC)o1`, which melting point is on record?
**A.** Its melting point is 112 °C.

**Q.** Which melting point does the source give for `COc1ccccc1N=Nc1c(O)ccc2ccccc12` here?
**A.** Its melting point is 183 °C.

**Q.** What does the source list for `CCOC(=O)C(C)(C)Br`?
**A.** boiling point: 163 °C; log10 vapour pressure (mmHg): 0.417

**Q.** For `CC(Cc1ccccc1)NC(C#N)c1ccccc1` (configuration not stated), which melting point is on record?
**A.** Its melting point is 86 °C.

**Q.** With `Cc1cc2ccccc2n1C` as the compound, how does the melting point read?
**A.** The melting point was 56.5 °C.

**Q.** With `C[C@H]1CC[C@@]2(O)C(C)(C)[C@@H]3CC[C@@]2(C)[C@H]1C3` as the compound, how does the melting point read?
**A.** Its melting point is 56 °C.

**Q.** Which melting point does the source give for `O=C1OC(c2ccccc2)(c2ccccc2)c2ccccc21` here?
**A.** Its melting point is 120 °C.

**Q.** Which boiling point does the source give for `C/C=C(C)/C=C/C=C(C)C` here?
**A.** The boiling point was 188 °C.

**Q.** What does the source list for `CCOC(=O)c1ccc(C(=O)OCC)cc1`?
**A.** boiling point: 302 °C; melting point: 44 °C

**Q.** With `CCC(C)CS` (configuration not stated) as the compound, how does the boiling point read?
**A.** The boiling point was 116 °C.

**Q.** What about the log10 vapour pressure (mmHg) of the same compound?
**A.** Its log10 vapour pressure (mmHg) is 1.3.

**Q.** For `CCCCOC(=O)C1(O)c2ccccc2-c2ccccc21`, which melting point is on record?
**A.** The melting point was 71 °C.

**Q.** With `ClCC(CCl)(CCl)CCl` as the compound, how does the melting point read?
**A.** The melting point was 97 °C.

**Q.** Which results are given for `Cc1ccc2c(C)cccc2c1`?
**A.** boiling point: 264 °C; log10 vapour pressure (mmHg): -1.84; melting point: -16.9 °C

**Q.** With `CCCc1nccnc1C` as the compound, how does the boiling point read?
**A.** Its boiling point is 189 °C.

**Q.** For `ClCC(Cl)C(Cl)=C(Cl)C(Cl)CCl` (configuration not stated), which melting point is on record?
**A.** The melting point was 58.5 °C.

**Q.** Which melting point does the source give for `CCc1ccc(O)cc1O` here?
**A.** Its melting point is 98.5 °C.

**Q.** With `Cc1ccc(C)c(O)c1` as the compound, how does the boiling point read?
**A.** Its boiling point is 211 °C.

**Q.** And the log10 Henry constant (atm·m³/mol)?
**A.** Its log10 Henry constant (atm·m³/mol) is -5.95.

**Q.** What about the log10 vapour pressure (mmHg) of the same compound?
**A.** Its log10 vapour pressure (mmHg) is -0.807.

**Q.** What about the melting point of the same compound?
**A.** Its melting point is 74.8 °C.

**Q.** What about the ready biodegradability of the same compound?
**A.** The ready biodegradability was “not readily biodegradable”.

**Q.** For `O=C(O)C(F)(F)F`, which boiling point is on record?
**A.** Its boiling point is 73 °C.

**Q.** And the log10 Henry constant (atm·m³/mol)?
**A.** Its log10 Henry constant (atm·m³/mol) is -6.95.

**Q.** What about the log10 vapour pressure (mmHg) of the same compound?
**A.** Its log10 vapour pressure (mmHg) is 2.04.

**Q.** What about the melting point of the same compound?
**A.** Its melting point is -15.2 °C.

**Q.** With `O=C(O)CCCCC1CCSS1` (configuration not stated) as the compound, how does the melting point read?
**A.** The melting point was 60.5 °C.

**Q.** Which results are given for `Cc1cc(O)ccc1O`?
**A.** boiling point: 272 °C; melting point: 128 °C

**Q.** Which melting point does the source give for `N#Cc1ccccc1C#N` here?
**A.** Its melting point is 140 °C.

**Q.** What about the ready biodegradability of the same compound?
**A.** Its ready biodegradability is “not readily biodegradable”.

**Q.** For `CCNc1nc(O)nc(NCC)n1`, which ready biodegradability is on record?
**A.** The ready biodegradability was “not readily biodegradable”.

**Q.** For `COC(=O)CCCBr`, which boiling point is on record?
**A.** Its boiling point is 186 °C.

**Q.** With `O=C(NNc1ccccc1)c1ccccc1` as the compound, how does the boiling point read?
**A.** Its boiling point is 314 °C.

**Q.** And the melting point?
**A.** Its melting point is 168 °C.

**Q.** With `CCCCCCCCCCCCCCCCC` as the compound, how does the boiling point read?
**A.** The boiling point was 302 °C.

**Q.** What about the log10 biodegradation half-life (days) of the same compound?
**A.** Its log10 biodegradation half-life (days) is 1.3.

**Q.** What about the log10 vapour pressure (mmHg) of the same compound?
**A.** The log10 vapour pressure (mmHg) was -3.64.

**Q.** And the melting point?
**A.** Its melting point is 22 °C.

**Q.** What about the ready biodegradability of the same compound?
**A.** Its ready biodegradability is “readily biodegradable”.

**Q.** For `Cc1cc(Cl)c(Cl)c(Cl)c1`, which boiling point is on record?
**A.** Its boiling point is 246 °C.

**Q.** And the melting point?
**A.** Its melting point is 45.5 °C.

**Q.** Which results are given for `ClC1(Cl)C2(Cl)C3(Cl)C4(Cl)C(Cl)(Cl)C5(Cl)C3(Cl)C1(Cl)C5(Cl)C24Cl` (configuration not stated)?
**A.** log10 Henry constant (atm·m³/mol): -3.09; log10 Koc (L/kg): 6; log10 vapour pressure (mmHg): -6.1

**Q.** With `COC(=O)N(C(=O)N1COC2(C(=O)OC)Cc3cc(Cl)ccc3C2=N1)c1ccc(OC(F)(F)F)cc1` (configuration not stated) as the compound, how does the melting point read?
**A.** The melting point was 140 °C.

**Q.** Which log10 vapour pressure (mmHg) does the source give for `O=C([O-])C(F)(F)C(F)F.[Na+]` here?
**A.** The log10 vapour pressure (mmHg) was -3.52.

**Q.** With `Cn1cnc2nc(N)[nH]c(=O)c21` as the compound, how does the melting point read?
**A.** The melting point was 370 °C.

**Q.** Which boiling point does the source give for `Cc1cc(C)c(C)c(C)c1` here?
**A.** Its boiling point is 198 °C.

**Q.** What about the log10 biodegradation half-life (days) of the same compound?
**A.** Its log10 biodegradation half-life (days) is 0.477.

**Q.** What about the log10 vapour pressure (mmHg) of the same compound?
**A.** Its log10 vapour pressure (mmHg) is -0.303.

**Q.** And the melting point?
**A.** Its melting point is -23.7 °C.

**Q.** With `CCCCCCCC(=O)O` as the compound, how does the boiling point read?
**A.** Its boiling point is 239 °C.

**Q.** What about the log10 vapour pressure (mmHg) of the same compound?
**A.** Its log10 vapour pressure (mmHg) is -2.43.

**Q.** What about the melting point of the same compound?
**A.** Its melting point is 16.3 °C.

**Q.** And the ready biodegradability?
**A.** Its ready biodegradability is “readily biodegradable”.

**Q.** Which boiling point does the source give for `O=C(CCc1ccccc1)CCc1ccccc1` here?
**A.** Its boiling point is 352 °C.

**Q.** And the melting point?
**A.** Its melting point is 13.5 °C.

**Q.** With `CCCCCCCCCc1cccc2ccccc12` as the compound, how does the boiling point read?
**A.** Its boiling point is 366 °C.

**Q.** What about the melting point of the same compound?
**A.** Its melting point is 8 °C.

**Q.** With `Cc1ccc(Oc2ccc([N+](=O)[O-])cc2)cc1` as the compound, how does the melting point read?
**A.** Its melting point is 69 °C.

**Q.** For `CC1CCCC(C)C1C` (configuration not stated), which boiling point is on record?
**A.** Its boiling point is 142 °C.

**Q.** For `CC(=O)C=CC1=C(C)CCCC1(C)C`, which log10 vapour pressure (mmHg) is on record?
**A.** The log10 vapour pressure (mmHg) was -1.27.

**Q.** Which melting point does the source give for `COc1ccc(CCN2CCC(Nc3nc4ccccc4n3Cc3ccc(F)cc3)CC2)cc1` here?
**A.** Its melting point is 149 °C.

**Q.** With `OCCCCCCCCCCl` as the compound, how does the melting point read?
**A.** The melting point was 28 °C.

**Q.** Which boiling point does the source give for `CNCc1ccco1` here?
**A.** The boiling point was 149 °C.

**Q.** For `CC(C)=C(C)C(C)C`, which boiling point is on record?
**A.** Its boiling point is 116 °C.

**Q.** And the log10 vapour pressure (mmHg)?
**A.** The log10 vapour pressure (mmHg) was 1.35.

**Q.** And the melting point?
**A.** The melting point was -113 °C.

**Q.** What does the source list for `CCOP(=S)(OCC)Oc1nc(Cl)n(C(C)C)n1`?
**A.** log10 Koc (L/kg): 2.01; log10 vapour pressure (mmHg): -4.06

**Q.** Which boiling point does the source give for `COc1ccc(CN)cc1` here?
**A.** Its boiling point is 236 °C.

**Q.** For `CC(Br)C(Br)C(=O)O` (configuration not stated), which melting point is on record?
**A.** Its melting point is 87 °C.

**Q.** With `CC(C)(O)CC(C)(O)c1ccc(Cl)cc1` (configuration not stated) as the compound, how does the melting point read?
**A.** Its melting point is 76.5 °C.

**Q.** Which melting point does the source give for `O=C(O)C=Cc1cccc([N+](=O)[O-])c1` here?
**A.** Its melting point is 179 °C.

**Q.** Which melting point does the source give for `C=CCC1(C(C)C)C(=O)NC(=O)NC1=O` here?
**A.** Its melting point is 141 °C.

**Q.** Which boiling point does the source give for `CCOCc1ccco1` here?
**A.** Its boiling point is 149 °C.

**Q.** Which results are given for `Cc1cccc(C)c1N(Cn1cccn1)C(=O)CCl`?
**A.** log10 Henry constant (atm·m³/mol): -9.25; melting point: 85 °C

**Q.** For `NCCCCN`, which boiling point is on record?
**A.** The boiling point was 158 °C.

**Q.** And the melting point?
**A.** The melting point was 27.5 °C.

**Q.** With `N#Cc1nn(-c2c(Cl)cc(C(F)(F)F)cc2Cl)c(N)c1S(=O)C(F)(F)F` (configuration not stated) as the compound, how does the log10 vapour pressure (mmHg) read?
**A.** The log10 vapour pressure (mmHg) was -8.56.

**Q.** What about the melting point of the same compound?
**A.** Its melting point is 200 °C.

**Q.** With `C[C@@H](N)C(C)(C)C` as the compound, how does the boiling point read?
**A.** Its boiling point is 102 °C.

**Q.** And the melting point?
**A.** Its melting point is -20 °C.

**Q.** For `O=C(Cl)c1ccccc1`, which boiling point is on record?
**A.** Its boiling point is 197 °C.

**Q.** What about the log10 vapour pressure (mmHg) of the same compound?
**A.** The log10 vapour pressure (mmHg) was -0.155.

**Q.** What about the melting point of the same compound?
**A.** Its melting point is -1 °C.
